In EP2650284A1, “Heterocyclic derivatives as metabotropic glutamate receptor modulators” (Merz Pharma GmbH & Co. KGaA, priority 2012, dated 2013):

Legend:
[1] = molecular target: T1, human metabotropic glutamate receptor mGluR5 (Homo sapiens, UniProt P41594); assay: Cytosolic calcium studies with stably transfected cells (h5CHO), functional assay of mGluR5 receptors; assay type: cell-based; details: for h left shift: h5CHO cells; for EC50: positive modulators, h5CHO cells preincubated with modulator, stimulated by an EC20 concentration of L-glutamate, read-out: hEC50
T1 construct: expressed in transfected cells; host or cells: CHO-K1 (h5CHO), IPTG-inducible
How it was run: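 IPTG-induced h5CHO (CHO-K1 expressing human mGluR5) loaded with calcium dye; compounds (0.5% DMSO) added 5 min before agonist. NAM IC50 against L-quisqualate at ~EC80; PAM EC50 with EC20 L-glutamate. FLIPR fluorescence, max-minus-min, % of maximal response, logistic fit.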

[2] = molecular target: T2, mGluR5 receptors (Rattus norvegicus, UniProt P31424); assay: Cytosolic calcium studies with astrocytes (FLIPR), functional assay of mGluR5 receptors; assay type: cell-based; details: for EC50: Table A1, positive modulators, fixed concentration of quisqualate (normally 10-30 nM), read-out: rEC50
T2 construct: Primary astrocyte cultures are prepared from cortices of newborn rats; endogenous in cells; host or cells: primary cortical astrocytes from Sprague-Dawley rat pups (2-4 d old)
How it was run: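 Rat cortical primary astrocytes at 14-15 DIV, loaded with Ca-sensitive dye for 2 h at RT, pH 7.3 buffer; FLIPR fluorescence after L-quisqualate (100 nM), antagonists pre-incubated 10 min. PAMs: quisqualate curves ± 10 µM modulator, or modulator curves at fixed 10-30 nM quisqualate. Max-min responses as % control, logistic fit.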

[3] = Table A3 (SAMs / very weak PAMs), agonist EC50 shift with 10 µM modulator or vehicle
[4] = Table A3 (SAMs / very weak PAMs), quisqualate EC50 shift with 10 µM modulator
[5] = Table A1, left shift of agonist EC50, dose response curves in the presence of 10 µM modulator or vehicle
[6] = Table A1, left shift of quisqualate EC50 in the presence and absence of 10 µM modulator

T2 sequence (P31424 21-1203): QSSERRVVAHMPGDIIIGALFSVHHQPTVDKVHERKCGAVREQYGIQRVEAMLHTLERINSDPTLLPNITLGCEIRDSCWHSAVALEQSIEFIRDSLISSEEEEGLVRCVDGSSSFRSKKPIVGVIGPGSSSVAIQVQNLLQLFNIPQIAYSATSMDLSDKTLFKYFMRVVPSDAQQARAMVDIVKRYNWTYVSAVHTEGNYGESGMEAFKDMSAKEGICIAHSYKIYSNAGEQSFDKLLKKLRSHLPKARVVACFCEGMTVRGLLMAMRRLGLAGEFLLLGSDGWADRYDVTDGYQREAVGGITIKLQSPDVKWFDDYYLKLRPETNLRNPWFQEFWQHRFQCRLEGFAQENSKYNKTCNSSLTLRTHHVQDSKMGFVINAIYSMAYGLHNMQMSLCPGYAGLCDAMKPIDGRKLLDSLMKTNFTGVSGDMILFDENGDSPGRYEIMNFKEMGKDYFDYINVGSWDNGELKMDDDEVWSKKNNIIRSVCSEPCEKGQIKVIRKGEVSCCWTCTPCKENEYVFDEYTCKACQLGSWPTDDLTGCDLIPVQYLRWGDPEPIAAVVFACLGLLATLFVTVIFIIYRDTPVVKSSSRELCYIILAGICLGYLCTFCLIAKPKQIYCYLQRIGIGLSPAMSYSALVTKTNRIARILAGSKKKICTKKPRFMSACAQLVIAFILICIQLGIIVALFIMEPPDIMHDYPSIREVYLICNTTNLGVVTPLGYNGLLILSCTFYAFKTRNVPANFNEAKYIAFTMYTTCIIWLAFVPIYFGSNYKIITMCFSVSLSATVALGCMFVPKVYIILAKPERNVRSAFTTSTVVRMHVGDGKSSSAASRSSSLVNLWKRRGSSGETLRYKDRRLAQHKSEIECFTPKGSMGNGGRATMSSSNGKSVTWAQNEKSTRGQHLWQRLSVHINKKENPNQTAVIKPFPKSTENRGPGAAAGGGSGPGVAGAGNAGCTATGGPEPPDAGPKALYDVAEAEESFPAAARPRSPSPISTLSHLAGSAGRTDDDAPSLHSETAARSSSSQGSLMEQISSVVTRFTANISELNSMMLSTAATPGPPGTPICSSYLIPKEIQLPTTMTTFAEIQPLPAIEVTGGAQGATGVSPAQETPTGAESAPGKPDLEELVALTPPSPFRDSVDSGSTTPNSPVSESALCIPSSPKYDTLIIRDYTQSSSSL
T1 sequence (P41594 21-1212): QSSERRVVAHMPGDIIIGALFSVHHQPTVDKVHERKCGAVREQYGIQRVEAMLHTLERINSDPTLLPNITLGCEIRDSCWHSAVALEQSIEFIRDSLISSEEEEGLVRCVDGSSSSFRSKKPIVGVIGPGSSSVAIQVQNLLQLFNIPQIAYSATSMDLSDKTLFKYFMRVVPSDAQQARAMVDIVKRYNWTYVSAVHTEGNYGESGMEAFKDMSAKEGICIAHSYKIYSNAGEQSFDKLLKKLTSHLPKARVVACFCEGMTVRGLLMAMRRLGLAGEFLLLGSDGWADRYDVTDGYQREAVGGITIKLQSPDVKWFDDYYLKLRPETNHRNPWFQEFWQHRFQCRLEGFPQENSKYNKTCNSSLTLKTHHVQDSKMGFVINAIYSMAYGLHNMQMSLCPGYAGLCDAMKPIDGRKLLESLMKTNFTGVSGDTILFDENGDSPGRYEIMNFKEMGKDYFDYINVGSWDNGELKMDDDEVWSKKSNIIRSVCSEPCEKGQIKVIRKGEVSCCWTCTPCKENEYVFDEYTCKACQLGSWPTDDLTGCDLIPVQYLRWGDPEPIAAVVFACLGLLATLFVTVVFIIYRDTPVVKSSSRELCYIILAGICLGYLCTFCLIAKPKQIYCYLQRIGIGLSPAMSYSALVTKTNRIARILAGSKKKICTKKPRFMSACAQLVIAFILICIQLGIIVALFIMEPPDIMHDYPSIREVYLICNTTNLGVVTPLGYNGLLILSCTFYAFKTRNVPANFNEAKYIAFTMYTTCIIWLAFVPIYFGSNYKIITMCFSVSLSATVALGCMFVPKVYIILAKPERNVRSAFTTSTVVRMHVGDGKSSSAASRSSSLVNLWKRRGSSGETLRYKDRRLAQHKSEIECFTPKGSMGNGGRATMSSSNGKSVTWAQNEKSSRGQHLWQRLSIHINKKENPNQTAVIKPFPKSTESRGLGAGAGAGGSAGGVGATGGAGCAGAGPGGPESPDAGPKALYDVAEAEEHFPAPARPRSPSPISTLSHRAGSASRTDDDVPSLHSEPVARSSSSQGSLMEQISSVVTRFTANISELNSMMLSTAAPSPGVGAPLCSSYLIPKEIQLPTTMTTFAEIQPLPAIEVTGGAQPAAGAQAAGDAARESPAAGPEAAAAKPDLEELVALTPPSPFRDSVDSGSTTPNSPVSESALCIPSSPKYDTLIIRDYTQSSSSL

CCCN1CCO[C@@H]2c3cc(C#Cc4cccc(C)c4)cnc3CC[C@@H]21 (racemic) [Example 21, (rac)-cis-4-Propyl-9-(m-tolylethynyl)-3,4,4a,5,6,10b-hexahydro-2H-[1,4]oxazino[2,3-f]quinoline]
h left shift [1, 3]: 1.3-fold | r left shift [2, 4]: 1.9-fold

COC(=O)N1CC[C@H]2CCc3ncc(C#Cc4ccccc4)cc3[C@H]21 (racemic) [Example 29, (rac)-cis-Methyl 8-(phenylethynyl)-2,3,3a,4,5,9b-hexahydro-1H-pyrrolo[2,3-f]quinoline-1-carboxylate]
h left shift [1, 3]: 1.3-fold | r left shift [2, 4]: 0.8-fold

CCCN1CC2(CCCc3ncc(C#Cc4cccc(C)c4)cc32)OC1=O (racemic) [Example 64, (rac)-3-Propyl-3'-(m-tolylethynyl)-7',8'-dihydro-6'H-spiro[oxazolidine-5,5'-quinolin]-2-one]
h left shift [1, 3]: 1.2-fold | r left shift [2, 4]: 0.9-fold

CCCN1CC2(CCCc3ncc(C#Cc4cccc(F)c4)cc32)OC1=O (racemic) [Example 66, (rac)-3'-((3-Fluorophenyl)ethynyl)-3-propyl-7',8'-dihydro-6'H-spiro[oxazolidine-5,5'-quinolin]-2-one]
h left shift [1, 3]: 1.6-fold | r left shift [2, 4]: 1.3-fold

COC1CCCc2ncc(C#Cc3ccccc3)cc21 (single isomer, unassigned) [Example 2, 5-Methoxy-3-(phenylethynyl)-5,6,7,8-tetrahydroquinoline]
h left shift [1, 5]: 2.3-fold | EC50 ([1]; Table A1): 20.9 nM | h left shift [1, 3]: 2.3-fold | r left shift [2, 6]: 4.4-fold | EC50 [2]: 12.5 nM | r left shift [2, 4]: 4.4-fold

CCCN1CCO[C@@H]2c3cc(C#Cc4ccccc4)cnc3CC[C@@H]21 (single isomer, unassigned) [Example 17, cis-9-(Phenylethynyl)-4-propyl-3,4,4a,5,6,10b-hexahydro-2H-[1,4]oxazino[2,3-f]quinoline]
h left shift [1, 5]: 2.3-fold | EC50 ([1]; Table A1): 388 nM | h left shift [1, 3]: 2.3-fold | r left shift [2, 6]: 3.5-fold | EC50 [2]: 67 nM | r left shift [2, 4]: 3.5-fold

CC(C)C(=O)N1CCc2ncc(C#Cc3ccccc3)cc2C1 [Example 33, 2-Methyl-1-(3-(phenylethynyl)-7,8-dihydro-1,6-naphthyridin-6(5H)-yl)propan-1-one]
h left shift [1, 3]: 1.4-fold | r left shift [2, 4]: 1.3-fold

CCOC(=O)N1CCc2ncc(C#Cc3ccccc3)cc2C1 [Example 40, Ethyl 3-(phenylethynyl)-7,8-dihydro-1,6-naphthyridine-6(5H)-carboxylate]
h left shift [1, 3]: 1.3-fold | r left shift [2, 4]: 1.6-fold
